“Also recorded” adds a separate entry of the source.
Key:
SARS-CoV-2 [1] = test: qRT-PCR of viral RNA from SARS-CoV-2 infected Vero-B4 cells; format: cell-based; conditions: 10 μM, 3 d treatment, 3 independent experiments; compared with 10 μM chloroquine or hydroxychloroquine
Procedure: Therefore, virus-containing samples were quantified by real-time PCR AgPath-ID One-Step RT-PCR Kit from Ambion (Cat: 4387424) allowing reverse transcription, cDNA synthesis and PCR amplification in a single step. Samples were analyzed by 7500 software v2.3 (applied Bioscience). PCR primers were used according to 44: RdRp_fwd: 5′-GTG-ARA-TGG-TCA-TGT-GTG-GCG-G-3′ and RdRp_rev 5′-CAR-ATG-TTA-AAS-ACA-CTA-TTA-GCA-TA-C-3′. Probe was 5′-CAG-GTG-GAA-/ZEN/CCT-CAT-CAG-GAG-ATG-C-3′ (Label: FAM/IBFQ Iowa Black FQ). As positive control a specific target for E and RdRp gen of SARS-CoV2 was used and made by Integrated DNA Technologies. Control: 5′-TAA-TAC-GAC-TCA-CTA-TAG-GGT-ATT-GAG-TGA-AAT-GGT-CAT-GTG-TGG-CGG-TTC-ACT-ATA-TGT-TAA-ACC-AGG-TGG-AAC-CTC-ATC-AGG-AGA-TGC-CAC-AAC-TGC-TTA-TGC-TAA-TAG-TGT-TTT-TAA-CAT-TTG-GAA-GAG- ACA-GGT-ACG-TTA-ATA-GTT-AAT-AGC-GTA-CTT-CTT-TTT-CTT-GCT-TTC-GTG-GTA-TTC-TTG-CTA-GTT-ACA-CTA-GCC-ATC-CTT-ACT-GCG-CTT-CGA-TTG-TGT-GCG-TAC-TGC-TGC-AAT-ATT-GTT-3′. The annealing temperature was 60° C. The experimental procedure containing the infection, treatment and isolation of virions was the same as described for the Western blot analysis. The evaluation of qRT-PCR analysis clearly confirmed the results of the Western blot experiments.

SARS-CoV-2 [2] = format: cell-based
Vero-B4 cells = conditions: WST assay, 3 days
[3] = target: T1, papain-like protease (PLpro) of SARS-CoV-2 (Severe acute respiratory syndrome coronavirus 2, UniProt P0DTD1); format: biochemical
T1 construct: They are the papain-like proteases (PLpro), encoded within nsp3; purchased R&D biosystems E-611-050

| Compound | amount of viral RNA (qRT-PCR) (SARS-CoV-2 [1]) | inhibition of replication of SARS-CoV-2 in infected Vero-B4 cells (SARS-CoV-2 [2]; 10 μM PR-619) | SARS-CoV-2 proteins in Western Blot, virus and cell fraction (SARS-CoV-2 [2]; 10 μM PR-619, infected Vero-B4 cells, 3 dpi) | generation of SARS-CoV-2 proteins, densitometric evaluation (nucleoprotein virus fraction, spike S1 cell fraction) (SARS-CoV-2 [2]; 10 μM, 3 d treatment, 3 independent experiments, compared with 10 μM chloroquine or hydroxychloroquine) | concentration at which a clear toxic effect started (Vero-B4 cells) | inhibitory effect on SARS-CoV-2 PLpro activity ([3]; 20 nM recombinant PLpro, ISG15-AMC substrate, 30 min pretreatment, 120 min readout, PR-619 1.25-10 μM, P5091 1.5-6 μM) | reduction of activity of PLpro from SARS-CoV-2 (AUC) ([3]; 6 μM P5091, n=3) [%] | reduction in the release of SARS-CoV-2 proteins (densitometric analysis) (SARS-CoV-2 [2]; 1.25 μM P5091, 3 d treatment, 3 independent experiments, untreated = 100%) [%] | release of SARS-CoV-2 proteins / replication of SARS-CoV-2 (SARS-CoV-2 [2]; 5 μM P5091, infected Vero-B4 cells, 3 d treatment) | release of viral proteins in Western Blot (SARS-CoV-2 [2]; different concentrations of P5091, 3 d treatment) |
| --- | --- | --- | --- | --- | --- | --- | --- | --- | --- | --- |
| N#CSc1cc(SC#N)c(N)nc1N [PR-619, 2,6-diaminopyridine-3,5-bis(thiocyanate)] | significantly reduced | broadly inhibit | clear reduction | significantly inhibited | over 20 μM | – | – | – | – | – |
| CC(=O)c1cc([N+](=O)[O-])c(Sc2cccc(Cl)c2Cl)s1 [P5091, 1-[5-[(2,3-dichlorophenyl)thio]-4-nitro-2-thienyl]-ethanone] | – | – | – | – | – | dose dependent reduction; also recorded: direct inhibitory action | 80 | 90 | complete block; also recorded: nearly completely inhibit | dose-dependent decrease |
